Data on six molecules can be found in PMC6349922.

This data set in a line: RCM stapling (C=C formation) of two bridgehead alkenyl ether chains of 7-azabicyclo[2.2.1]heptane amide dimers; Grubbs I, 5-7 mol% (about 2.5-3 mol% for 36), added dropwise over 10-15 min, reflux under Ar. As to conditions: CH2Cl2, 1.0 mM, 40.0 °C.

In turn, `CC(C)(C)OC(=O)N1[C@H]2CC[C@@]13COCCCC=CCCCOCC14CCC(CC1)N4C(=O)[C@H]2C3` [1 -> 6 (C8)] had a ring closure, isolated yield (from C=CCCCOCC12CCC(CC1)N2C(=O)[C@H]1C[C@@]2(COCCCC=C)CC[C@@H]1N2C(=O)OC(C)(C)C, 18-membered ring, 8.0 h) of 73%.
Regarding `CC(C)(C)OC(=O)N1[C@H]2CC[C@@]13COCCCCC=CCCCOCC14CCC(CC1)N4C(=O)[C@H]2C3` [2 -> 7 (C9)], where the note is “from C=CCCCCOC[C@@]12CC[C@@H]([C@@H](C(=O)N3C4CCC3(COCCCC=C)CC4)C1)N2C(=O)OC(C)(C)C, 19-membered ring, 4.0 h”, the ring closure, isolated yield was determined as 80%.
Consider `CC(C)(C)OC(=O)N1[C@H]2CC[C@@]13COCCCCC=CCCCCOCC14CCC(CC1)N4C(=O)[C@H]2C3` [3 -> 8 (C10)], for which, for the setting “from C=CCCCCOCC12CCC(CC1)N2C(=O)[C@H]1C[C@@]2(COCCCCC=C)CC[C@@H]1N2C(=O)OC(C)(C)C, 20-membered ring, 3.0 h”, the ring closure, isolated yield stood at 94%.
On to `CC(C)(C)OC(=O)N1[C@H]2CC[C@@]13COCCCCCC=CCCCCOCC14CCC(CC1)N4C(=O)[C@H]2C3` [4 -> 9 (C11)], for which the ring closure, isolated yield (from C=CCCCCCOC[C@@]12CC[C@@H]([C@@H](C(=O)N3C4CCC3(COCCCCC=C)CC4)C1)N2C(=O)OC(C)(C)C, 21-membered ring, 2.0 h) was 87%.
The molecule `CC(C)(C)OC(=O)N1[C@H]2CC[C@@]13COCCCCCC=CCCCCCOCC14CCC(CC1)N4C(=O)[C@H]2C3` [5 -> 10 (C12)] displayed a ring closure, isolated yield (from C=CCCCCCOCC12CCC(CC1)N2C(=O)[C@H]1C[C@@]2(COCCCCCC=C)CC[C@@H]1N2C(=O)OC(C)(C)C, 22-membered ring, 16.0 h) of 64%.
For the molecule `Cc1ccc(S(=O)(=O)N2[C@H]3CC[C@@]24COCCCCC=CCCCCOCC25CCC(CC2)N5C(=O)[C@H]3C4)cc1` [36 -> Ts-8 (C10, N-Ts)], for the setting “from C=CCCCCOCC12CCC(CC1)N2C(=O)[C@H]1C[C@@]2(COCCCCC=C)CC[C@@H]1N2S(=O)(=O)c1ccc(C)cc1, 20-membered ring, 1.0 h”, the ring closure, isolated yield turned out to be 91%.
